Where only a bound is given, the exact number is not on record here.

Common to all, as to assay type: biochemical
One test deals with CDK6/Cyclin D3 (Homo sapiens (Human), UniProt Q00534). Put plainly: CDK6/Cyclin D3 kinase assay (Nanosyn, Caliper microfluidic). Particulars: 12-point dose-response, singlicate, at Km for ATP; ATP 300 μM; 3 hr. How it is done:
(§1) Selected compounds disclosed herein were tested in kinase assays by Nanosyn (Santa Clara, CA) to determine their inhibitory effect on these CDKs. The assays were performed using microfluidic kinase detection technology (Caliper Assay Platform). The compounds were tested in 12-point dose-response format in singlicate at Km for ATP. Specifics of each assay are as described below:
CDK6/Cyclin D3: Enzyme concentration: 2 nM; ATP concentration: 300 μM; Incubation time: 3 hr.

The target of a further test is CDK4/Cyclin D1 (Homo sapiens (Human), UniProt P11802). The test is described as follows: CDK4/Cyclin D1 kinase assay (Nanosyn, Caliper microfluidic). To be noted: 12-point dose-response, singlicate, at Km for ATP; ATP 200 μM; 3 hr. The method, then:
as §1
CDK4/Cyclin D1: Enzyme concentration: 1 nM; ATP concentration: 200 μM; Incubation time: 3 hr.

The target of another test is CDK2/Cyclin E (Homo sapiens (Human), UniProt P24941). The test is described as follows: CDK2/Cyclin E kinase assay (Nanosyn, Caliper microfluidic). Particulars: 12-point dose-response, singlicate, at Km for ATP; ATP 100 μM; 3 hr. How it is done: as §1
CDK2/Cyclin E: Enzyme concentration: 0.15 nM; ATP concentration: 100 μM; Incubation time: 3 hr.

The target in the next test is CDK3-CYCLIN-E (Homo sapiens (Human), UniProt Q00526). The test is described as follows: CDK3-Cyclin-E kinase assay (Nanosyn, Caliper microfluidic). To be noted: 12-point dose-response, singlicate, at Km for ATP. The method, then:
(§2) Selected compounds disclosed herein were tested in kinase assays by Nanosyn (Santa Clara, CA) to determine their inhibitory effect on these CDKs. The assays were performed using microfluidic kinase detection technology (Caliper Assay Platform). The compounds were tested in 12-point dose-response format in singlicate at Km for ATP.

For another test, the target named is CDK7 (Homo sapiens (Human), UniProt P50613). The test is described as follows: CDK7 kinase assay (Nanosyn, Caliper microfluidic). Particulars: 12-point dose-response, singlicate, at Km for ATP. The method, then: as §2
The next test has as its target CDK9/Cyclin T1 (Homo sapiens (Human), UniProt P50750). Put plainly: CDK9/Cyclin T1 kinase assay (Nanosyn, Caliper microfluidic). To be noted: 12-point dose-response, singlicate, at Km for ATP; ATP 10 μM; 17 hr. The method, then: as §1
CDK9/Cyclin T1: Enzyme concentration: 5 nM; ATP concentration: 10 μM; Incubation time: 17 hr.

For another test, the target named is CDK2/Cyclin A (Homo sapiens (Human), UniProt P24941). Put plainly: CDK2/Cyclin A kinase assay (Nanosyn, Caliper microfluidic). To be noted: 12-point dose-response, singlicate, at Km for ATP; ATP 50 μM; 3 hr. How it is done: as §1
CDK2/Cyclin A: Enzyme concentration: 0.1 nM; ATP concentration: 50 μM; Incubation time: 3 hr.

Another test addresses CDK1/Cyclin B1 (Homo sapiens (Human), UniProt P06493). Put plainly: CDK1/Cyclin B1 kinase assay (Nanosyn, Caliper microfluidic). To be noted: 12-point dose-response, singlicate, at Km for ATP; ATP 40 μM; 3 hr. The method, then: as §1
CDK1/Cyclin B1: Enzyme concentration: 0.08 nM; ATP concentration: 40 μM; Incubation time: 3 hr.

CDK4/Cyclin D1, sequence (P11802 whole entry): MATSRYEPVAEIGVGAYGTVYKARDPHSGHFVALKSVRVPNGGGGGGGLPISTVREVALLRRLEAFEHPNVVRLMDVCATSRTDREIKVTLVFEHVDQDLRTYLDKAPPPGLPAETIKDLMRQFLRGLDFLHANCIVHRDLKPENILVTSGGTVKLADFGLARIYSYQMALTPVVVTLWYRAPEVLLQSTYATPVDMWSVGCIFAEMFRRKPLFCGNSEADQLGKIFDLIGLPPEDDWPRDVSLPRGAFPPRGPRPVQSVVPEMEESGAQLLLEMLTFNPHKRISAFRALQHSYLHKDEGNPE
CDK4/Cyclin D1, sequence (P24385 whole entry partner): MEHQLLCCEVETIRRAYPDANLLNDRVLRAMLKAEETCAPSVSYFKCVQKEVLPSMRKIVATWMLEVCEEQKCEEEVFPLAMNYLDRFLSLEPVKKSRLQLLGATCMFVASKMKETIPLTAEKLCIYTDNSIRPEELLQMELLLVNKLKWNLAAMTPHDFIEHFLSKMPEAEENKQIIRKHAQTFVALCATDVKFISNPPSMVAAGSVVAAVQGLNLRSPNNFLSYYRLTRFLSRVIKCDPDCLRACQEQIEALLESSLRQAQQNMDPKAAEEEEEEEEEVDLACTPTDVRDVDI
CDK9/Cyclin T1, sequence (P50750 whole entry): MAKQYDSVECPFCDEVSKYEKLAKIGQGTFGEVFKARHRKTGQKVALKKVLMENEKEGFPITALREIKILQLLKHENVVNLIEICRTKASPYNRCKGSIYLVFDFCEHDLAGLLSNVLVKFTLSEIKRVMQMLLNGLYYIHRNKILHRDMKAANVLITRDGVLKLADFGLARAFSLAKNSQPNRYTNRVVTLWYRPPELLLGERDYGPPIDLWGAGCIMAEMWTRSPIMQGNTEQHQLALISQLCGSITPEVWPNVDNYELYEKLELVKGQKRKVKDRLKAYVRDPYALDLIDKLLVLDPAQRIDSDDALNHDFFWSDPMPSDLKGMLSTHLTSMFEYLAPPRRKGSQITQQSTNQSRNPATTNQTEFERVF
CDK9/Cyclin T1, sequence (O60563 whole entry partner): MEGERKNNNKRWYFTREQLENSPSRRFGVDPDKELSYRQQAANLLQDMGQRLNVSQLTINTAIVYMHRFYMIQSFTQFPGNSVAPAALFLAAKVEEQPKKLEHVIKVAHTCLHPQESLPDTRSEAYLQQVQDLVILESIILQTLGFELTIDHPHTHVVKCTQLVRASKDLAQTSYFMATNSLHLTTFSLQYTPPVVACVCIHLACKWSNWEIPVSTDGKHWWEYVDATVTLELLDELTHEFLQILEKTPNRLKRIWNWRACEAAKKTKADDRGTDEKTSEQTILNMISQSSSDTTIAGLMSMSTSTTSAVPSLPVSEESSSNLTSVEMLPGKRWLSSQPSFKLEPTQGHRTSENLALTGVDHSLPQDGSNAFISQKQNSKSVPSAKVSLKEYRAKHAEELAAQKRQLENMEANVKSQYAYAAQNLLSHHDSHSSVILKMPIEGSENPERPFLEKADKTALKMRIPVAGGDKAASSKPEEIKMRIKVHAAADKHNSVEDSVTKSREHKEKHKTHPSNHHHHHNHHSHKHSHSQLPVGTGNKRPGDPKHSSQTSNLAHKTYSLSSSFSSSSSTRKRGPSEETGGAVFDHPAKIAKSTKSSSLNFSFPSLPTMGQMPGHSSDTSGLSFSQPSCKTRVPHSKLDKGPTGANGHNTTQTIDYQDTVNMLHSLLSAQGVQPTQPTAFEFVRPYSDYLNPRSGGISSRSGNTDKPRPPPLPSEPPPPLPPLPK
CDK7, sequence (P50613 whole entry): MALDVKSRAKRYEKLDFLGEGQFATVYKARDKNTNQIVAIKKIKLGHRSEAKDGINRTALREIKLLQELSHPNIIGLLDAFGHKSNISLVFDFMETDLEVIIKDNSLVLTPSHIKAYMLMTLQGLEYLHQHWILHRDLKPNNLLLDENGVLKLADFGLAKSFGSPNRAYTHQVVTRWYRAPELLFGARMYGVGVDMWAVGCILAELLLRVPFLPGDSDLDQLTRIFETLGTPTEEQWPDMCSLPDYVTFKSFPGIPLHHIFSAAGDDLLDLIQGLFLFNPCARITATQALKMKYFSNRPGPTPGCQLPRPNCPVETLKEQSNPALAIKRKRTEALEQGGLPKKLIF
CDK7, sequence (P51946 whole entry partner): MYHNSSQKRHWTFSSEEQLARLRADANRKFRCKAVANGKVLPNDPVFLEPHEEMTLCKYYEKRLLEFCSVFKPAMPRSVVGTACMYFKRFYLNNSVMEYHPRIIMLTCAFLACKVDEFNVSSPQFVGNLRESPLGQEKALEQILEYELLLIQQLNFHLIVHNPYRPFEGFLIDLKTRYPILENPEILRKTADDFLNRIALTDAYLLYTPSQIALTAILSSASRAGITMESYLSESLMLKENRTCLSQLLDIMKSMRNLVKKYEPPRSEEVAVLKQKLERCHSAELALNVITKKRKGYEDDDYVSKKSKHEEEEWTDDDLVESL
CDK7, sequence (P51948 whole entry partner): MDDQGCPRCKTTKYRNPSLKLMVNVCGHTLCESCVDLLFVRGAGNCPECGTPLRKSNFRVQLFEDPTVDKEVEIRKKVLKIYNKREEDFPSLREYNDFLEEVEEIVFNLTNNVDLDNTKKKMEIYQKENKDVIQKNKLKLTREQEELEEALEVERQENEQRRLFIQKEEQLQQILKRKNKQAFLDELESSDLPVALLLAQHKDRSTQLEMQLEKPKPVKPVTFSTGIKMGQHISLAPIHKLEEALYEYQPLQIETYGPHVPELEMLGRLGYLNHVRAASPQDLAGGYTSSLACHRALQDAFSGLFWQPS
CDK6/Cyclin D3, sequence (Q00534 whole entry): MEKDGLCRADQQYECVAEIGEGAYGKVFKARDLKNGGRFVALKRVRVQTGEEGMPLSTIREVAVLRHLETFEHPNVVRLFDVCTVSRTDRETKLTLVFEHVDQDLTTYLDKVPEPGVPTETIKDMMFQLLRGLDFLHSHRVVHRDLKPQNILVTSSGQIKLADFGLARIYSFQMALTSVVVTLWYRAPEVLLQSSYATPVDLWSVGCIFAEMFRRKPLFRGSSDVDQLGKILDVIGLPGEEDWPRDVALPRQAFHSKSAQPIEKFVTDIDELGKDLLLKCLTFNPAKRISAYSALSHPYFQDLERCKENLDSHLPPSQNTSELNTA
CDK6/Cyclin D3, sequence (P30281 whole entry partner): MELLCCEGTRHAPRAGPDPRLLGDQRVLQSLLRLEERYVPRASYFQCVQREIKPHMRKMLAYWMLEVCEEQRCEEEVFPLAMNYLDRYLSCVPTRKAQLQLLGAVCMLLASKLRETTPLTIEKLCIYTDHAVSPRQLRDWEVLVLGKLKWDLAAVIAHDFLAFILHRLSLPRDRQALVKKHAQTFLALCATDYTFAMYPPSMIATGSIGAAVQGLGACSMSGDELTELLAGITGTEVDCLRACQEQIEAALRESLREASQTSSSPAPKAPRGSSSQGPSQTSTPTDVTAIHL
CDK1/Cyclin B1, sequence (P06493 whole entry): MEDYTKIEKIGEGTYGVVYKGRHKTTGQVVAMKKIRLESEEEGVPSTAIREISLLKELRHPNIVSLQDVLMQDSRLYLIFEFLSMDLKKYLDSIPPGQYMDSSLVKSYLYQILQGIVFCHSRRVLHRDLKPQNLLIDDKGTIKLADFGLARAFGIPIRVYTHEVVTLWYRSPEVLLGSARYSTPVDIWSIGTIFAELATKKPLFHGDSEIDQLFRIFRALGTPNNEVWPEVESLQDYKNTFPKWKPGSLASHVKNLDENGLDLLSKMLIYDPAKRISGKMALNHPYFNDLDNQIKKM
CDK1/Cyclin B1, sequence (P14635 whole entry partner): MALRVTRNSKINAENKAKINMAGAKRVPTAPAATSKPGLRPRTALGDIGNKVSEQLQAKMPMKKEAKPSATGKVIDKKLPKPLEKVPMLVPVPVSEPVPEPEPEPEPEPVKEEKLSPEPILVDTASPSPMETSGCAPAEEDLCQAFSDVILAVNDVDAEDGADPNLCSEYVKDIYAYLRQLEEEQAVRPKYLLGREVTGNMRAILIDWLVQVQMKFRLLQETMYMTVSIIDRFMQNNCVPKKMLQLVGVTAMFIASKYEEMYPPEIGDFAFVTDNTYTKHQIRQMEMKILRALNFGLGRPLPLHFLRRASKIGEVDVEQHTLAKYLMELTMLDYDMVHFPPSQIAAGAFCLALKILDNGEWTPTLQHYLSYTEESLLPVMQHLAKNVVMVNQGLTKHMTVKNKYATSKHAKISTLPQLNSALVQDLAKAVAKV

Regarding `NS(=O)(=O)c1ccc(Nc2ncc3cc4n(c3n2)C2(C=NN4)CCCCC2)cc1` [Compound 4, 4-((1′H-spiro[cyclohexane-1,4′-pyrimido[5′,4′:4,5]pyrrolo[2,1-c][1,2,4]triazin]-7′-yl)amino)benzenesulfonamide], the half-maximal inhibitory concentration (IC50) (as a rule, the concentration that gives 50% inhibition) against CDK6/Cyclin D3 was 170 nM; against CDK4/Cyclin D1 it was 53 nM; at CDK2/Cyclin E, 1 nM; against CDK3-CYCLIN-E it was 5 nM; on CDK7 it was 230 nM; on CDK9/Cyclin T1, 11 nM. For the same molecule, the 50% inhibitory concentration (IC50) against CDK2/Cyclin A turned out to be 1 nM; against CDK1/Cyclin B1, 89 nM.
As for `CN1N=CC2(CCCCC2)n2c1cc1cnc(Nc3ccc(S(N)(=O)=O)cc3)nc12` [Compound 5, 4-((1′-methyl-1′H-spiro[cyclohexane-1,4′-pyrimido[5′,4′:4,5]pyrrolo[2,1-c][1,2,4]triazin]-7′-yl)amino)benzenesulfonamide], the IC50 was determined as 231 nM at CDK6/Cyclin D3; 41 nM at CDK4/Cyclin D1; 3 nM on CDK2/Cyclin E; 23 nM against CDK3-CYCLIN-E; 875 nM on CDK7; 26 nM on CDK9/Cyclin T1. Further, the half-inhibitory concentration (IC50) against CDK2/Cyclin A came out at 2 nM; against CDK1/Cyclin B1, 11 nM.
With `NS(=O)(=O)c1ccc(Nc2ncc3cc4n(c3n2)C2(CCCCC2)C(=O)N[C@@H]4CF)cc1` [Compound 23, (S)-4-((6′-(fluoromethyl)-8′-oxo-7′,8′-dihydro-6′H-spiro[cyclohexane-1,9′-pyrazino[1′2′:1,5]pyrrolo[2,3-d]pyrimidin]-2′-yl)amino)benzenesulfonamide], the IC50 on CDK6/Cyclin D3 amounted to 45 nM; on CDK4/Cyclin D1, 19 nM; on CDK2/Cyclin E, 1 nM; at CDK3-CYCLIN-E, 6 nM; against CDK7, 682 nM; at CDK9/Cyclin T1, 11 nM. The values for the 50% inhibitory concentration (IC50) at CDK2/Cyclin A and at CDK1/Cyclin B1 were 1 nM and 20 nM, respectively.
As to `CC1C(=O)Nc2cc3cnc(Nc4ccc(S(N)(=O)=O)cc4)nc3n2C12CCCCC2` (stereo not drawn) [Compound 42, 4-((8′-methyl-7′-oxo-7′,8′-dihydro-6′H-spiro[cyclohexane-1,9′-pyrrolo[1,5-a:2,3-d′]dipyrimidin]-2′-yl)amino)benzenesulfonamide], the IC50 against CDK2/Cyclin E is 1 nM; against CDK3-CYCLIN-E it was 10 nM; on CDK9/Cyclin T1, 6 nM; at CDK2/Cyclin A, 1 nM; at CDK1/Cyclin B1 it was 7 nM.
With `CC1C(=O)N(C)c2cc3cnc(Nc4ccc(S(N)(=O)=O)cc4)nc3n2C12CCCCC2` (stereo not drawn) [Compound 43, 4-((6′,8′-dimethyl-7′-oxo-7′,8′-dihydro-6′H-spiro[cyclohexane-1,9′-pyrrolo[1,5-a:2,3-d′]dipyrimidin]-2′-yl)amino)benzenesulfonamide], the IC50 at CDK2/Cyclin E amounted to 4 nM; at CDK3-CYCLIN-E it was 29 nM; at CDK9/Cyclin T1, 21 nM; against CDK2/Cyclin A it was 4 nM; against CDK1/Cyclin B1, 33 nM.
For `CC1=NNc2cc3cnc(Nc4ccc(S(N)(=O)=O)cc4)nc3n2C12CCCCC2` [Compound 45, 4-((3′-methyl-1′H-spiro[cyclohexane-1,4′-pyrimido[5′,4′:4,5]pyrrolo[2,1-c][1,2,4]triazin]-7′-yl)amino)benzenesulfonamide], the IC50 was greater than 1000 nM against CDK6/Cyclin D3; 436 nM at CDK4/Cyclin D1; 19 nM against CDK2/Cyclin E; 73 nM on CDK3-CYCLIN-E; greater than 1000 nM on CDK7; 240 nM at CDK9/Cyclin T1. Also, the half-maximal inhibitory concentration (IC50) against CDK2/Cyclin A amounted to 16 nM; at CDK1/Cyclin B1, 108 nM.
As for `CC1=NN(C)c2cc3cnc(Nc4ccc(S(N)(=O)=O)cc4)nc3n2C12CCCCC2` [Compound 46, 4-((1′,3′-dimethyl-1′H-spiro[cyclohexane-1,4′-pyrimido[5′,4′:4,5]pyrrolo[2,1-c][1,2,4]triazin]-7′-yl)amino)benzenesulfonamide], the 50% inhibitory concentration (IC50) on CDK6/Cyclin D3 was determined as 83 nM; against CDK4/Cyclin D1, 22 nM; on CDK2/Cyclin E, 2 nM; on CDK3-CYCLIN-E it was 13 nM; against CDK7, 723 nM; on CDK9/Cyclin T1 it was 9 nM. Moreover, the half-maximal inhibitory concentration (IC50) against CDK2/Cyclin A came out at 2 nM; against CDK1/Cyclin B1 it was 14 nM.
Take `CN1CCN(S(=O)(=O)c2ccc(Nc3ncc4cc5n(c4n3)C3(CCCCC3)C(=O)NN5)cc2)CC1` [Compound 49, 7′-((4-((4-methylpiperazin-1-yl)sulfonyl)phenyl)amino)-1′,2′-dihydro-3′H-spiro[cyclohexane-1,4′-pyrimido[5′,4′:4,5]pyrrolo[2,1-c][1,2,4]triazin]-3′-one]: the concentration for half-maximal inhibition (IC50) at CDK6/Cyclin D3 was found to be 480 nM; against CDK4/Cyclin D1, 253 nM; against CDK2/Cyclin E, 10 nM; at CDK3-CYCLIN-E, 115 nM; against CDK7, 242 nM; against CDK9/Cyclin T1 it was 199 nM. Also, the IC50 against CDK2/Cyclin A turned out to be 45 nM; at CDK1/Cyclin B1, 478 nM.
On to `CN1CCN(S(=O)(=O)c2ccc(Nc3ncc4cc5n(c4n3)C3(CCCCC3)C(=O)NC5O)cc2)CC1` (stereo not drawn) [Compound 50, 6′-hydroxy-2′-((4-((4-methylpiperazin-1-yl)sulfonyl)phenyl)amino)-6′,7′-dihydro-8′H-spiro[cyclohexane-1,9′-pyrazino[1′,2′:1,5]pyrrolo[2,3-d]pyrimidin]-8′-one], for which the IC50 was 51 nM at CDK6/Cyclin D3; 113 nM on CDK4/Cyclin D1; 4 nM against CDK2/Cyclin E; 28 nM against CDK3-CYCLIN-E; 118 nM against CDK7; 2 nM on CDK9/Cyclin T1. For the same molecule, the figures for the 50% inhibitory concentration (IC50) on CDK2/Cyclin A and against CDK1/Cyclin B1 were 2 nM and 78 nM, respectively.
With `CNC(=O)Nc1ccc(Nc2ncc3cc4n(c3n2)C2(CCCCC2)C(=O)NN4)cc1` [Compound 68, 1-methyl-3-(4-((3′-oxo-2′,3′-dihydro-1′H-spiro[cyclohexane-1,4′-pyrimido[5′,4′:4,5]pyrrolo[2,1-c][1,2,4]triazin]-7′-yl)amino)phenyl)urea], the IC50 on CDK6/Cyclin D3 is greater than 1000 nM; on CDK4/Cyclin D1 it was 595 nM; on CDK2/Cyclin E, 349 nM; on CDK9/Cyclin T1, 284 nM; against CDK2/Cyclin A, 841 nM; against CDK1/Cyclin B1, greater than 1000 nM.
As for `CC1C(=O)Nc2cc3cnc(Nc4ccc(C(=O)N5CCN(C)CC5)cc4)nc3n2C12CCCCC2` (stereo not drawn) [Compound 71, 8′-methyl-2′-((4-(4-methylpiperazine-1-carbonyl)phenyl)amino)-6′H-spiro[cyclohexane-1,9′-pyrrolo[1,5-a:2,3-d′]dipyrimidin]-7′(8′H)-one], the 50% inhibitory concentration (IC50) against CDK6/Cyclin D3 was 15 nM; on CDK4/Cyclin D1, 9 nM; at CDK2/Cyclin E it was 3 nM; at CDK9/Cyclin T1 it was 9 nM; against CDK2/Cyclin A, 4 nM; against CDK1/Cyclin B1 it was 15 nM.
For `CS(=N)(=O)c1ccc(Nc2ncc3cc4n(c3n2)C2(CCCCC2)C(=O)NN4)cc1` (stereo not drawn) [Compound 79, 7′-((4-(S-methylsulfonimidoyl)phenyl)amino)-1′,2′-dihydro-3′H-spiro[cyclohexane-1,4′-pyrimido[5′,4′:4,5]pyrrolo[2,1-c][1,2,4]triazin]-3′-one], the IC50 on CDK6/Cyclin D3 is 291 nM; against CDK4/Cyclin D1 it was 172 nM; against CDK2/Cyclin E, 5 nM; on CDK9/Cyclin T1, 89 nM; against CDK2/Cyclin A, 16 nM; against CDK1/Cyclin B1 it was 146 nM.
With `Nc1ccc(S(=O)(=O)Nc2ncc3cc4n(c3n2)C2(CCCCC2)C(=O)NN4)cc1` [Compound 84, 4-amino-N-(3′-oxo-2′,3′-dihydro-1′H-spiro[cyclohexane-1,4′-pyrimido[5′,4′:4,5]pyrrolo[2,1-c][1,2,4]triazin]-7′-yl)benzenesulfonamide], the IC50 against CDK6/Cyclin D3 was greater than 1000 nM; at CDK4/Cyclin D1, greater than 1000 nM; on CDK2/Cyclin E, 207 nM; at CDK9/Cyclin T1 it was greater than 1000 nM; at CDK2/Cyclin A, 571 nM; on CDK1/Cyclin B1, greater than 1000 nM.
In the case of `Nc1ccc(S(=O)(=O)Nc2ncc3cc4n(c3n2)C2(CCCCC2)CNC4=O)cc1` [Compound 91, 4-amino-N-(6′-oxo-7′,8′-dihydro-6′H-spiro[cyclohexane-1,9′-pyrazino[1′,2′:1,5]pyrrolo[2,3-d]pyrimidin]-2′-yl)benzenesulfonamide], the half-inhibitory concentration (IC50) was 920 nM against CDK6/Cyclin D3; 361 nM at CDK4/Cyclin D1; 287 nM at CDK2/Cyclin E; 183 nM at CDK9/Cyclin T1; 322 nM against CDK2/Cyclin A; greater than 1000 nM against CDK1/Cyclin B1.
